According to ChEMBL document CHEMBL6127128, “Discovery of the First-in-Class Dual-Target ROCK/HDAC Inhibitor with Potent Antitumor Efficacy in Vivo That Trigger Antitumor Immunity” (J Med Chem, 2024):
Activity calls are given as the source filed them. The calls are words filed in the database; no cut-off is given here.

How the values were obtained:
Histone deacetylase 3 = Histone deacetylase 3 (Homo sapiens, UniProt O15379); assay: Inhibition of HDAC3 (unknown origin) using Ac-Leu-Gly-Lys(Ac)-AMC as substrate preincubated for 5 mins followed by substrate addition for 30 mins and measured following trypsin addition for 30 mins by fluorescence based analysis
Chain of Histone deacetylase 3 (O15379 whole entry): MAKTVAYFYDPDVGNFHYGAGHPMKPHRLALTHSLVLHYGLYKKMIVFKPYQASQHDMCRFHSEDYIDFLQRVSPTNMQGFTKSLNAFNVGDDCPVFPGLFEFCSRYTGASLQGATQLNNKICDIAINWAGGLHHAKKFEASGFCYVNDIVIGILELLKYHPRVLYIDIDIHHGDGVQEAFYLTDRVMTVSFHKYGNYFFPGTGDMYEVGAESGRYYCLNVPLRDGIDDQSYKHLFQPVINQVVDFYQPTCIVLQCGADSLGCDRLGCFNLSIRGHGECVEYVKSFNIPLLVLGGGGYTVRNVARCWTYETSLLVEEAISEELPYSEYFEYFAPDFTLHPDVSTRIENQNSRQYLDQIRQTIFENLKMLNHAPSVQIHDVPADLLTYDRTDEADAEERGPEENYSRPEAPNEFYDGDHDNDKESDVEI

Histone deacetylase 7 = target: T1, Histone deacetylase 7 (Homo sapiens, UniProt Q8WUI4); assay: Inhibition of HDAC7 (unknown origin) using Ac-Leu-Gly-Lys(tfa)-AMC as substrate preincubated for 5 mins followed by substrate addition for 30 mins and measured following trypsin addition for 30 mins by fluorescence based analysis
T1 sequence (Q8WUI4 whole entry): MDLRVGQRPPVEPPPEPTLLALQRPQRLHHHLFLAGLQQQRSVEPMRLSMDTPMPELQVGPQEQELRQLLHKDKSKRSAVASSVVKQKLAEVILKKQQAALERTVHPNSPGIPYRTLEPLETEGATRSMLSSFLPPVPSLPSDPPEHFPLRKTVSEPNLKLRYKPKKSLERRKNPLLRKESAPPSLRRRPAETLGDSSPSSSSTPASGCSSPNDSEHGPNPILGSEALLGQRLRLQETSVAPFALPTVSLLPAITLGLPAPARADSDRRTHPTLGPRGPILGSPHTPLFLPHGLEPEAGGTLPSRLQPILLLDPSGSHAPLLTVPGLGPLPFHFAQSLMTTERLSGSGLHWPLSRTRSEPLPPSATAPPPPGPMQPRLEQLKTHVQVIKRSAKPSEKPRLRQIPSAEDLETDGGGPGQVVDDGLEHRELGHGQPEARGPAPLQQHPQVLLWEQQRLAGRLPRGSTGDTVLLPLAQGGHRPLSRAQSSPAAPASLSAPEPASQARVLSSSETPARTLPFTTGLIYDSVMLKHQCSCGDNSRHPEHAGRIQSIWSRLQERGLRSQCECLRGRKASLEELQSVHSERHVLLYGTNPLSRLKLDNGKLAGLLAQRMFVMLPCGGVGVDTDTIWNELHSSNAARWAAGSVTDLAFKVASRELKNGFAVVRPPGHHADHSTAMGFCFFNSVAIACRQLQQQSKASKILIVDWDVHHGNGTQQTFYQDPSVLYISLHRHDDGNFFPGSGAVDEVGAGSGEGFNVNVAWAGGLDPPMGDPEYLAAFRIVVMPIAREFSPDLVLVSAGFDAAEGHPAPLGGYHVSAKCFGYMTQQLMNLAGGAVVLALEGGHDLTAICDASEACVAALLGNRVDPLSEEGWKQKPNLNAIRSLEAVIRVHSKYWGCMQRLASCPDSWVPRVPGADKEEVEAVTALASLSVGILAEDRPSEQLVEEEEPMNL

Histone deacetylase 8 = target: T2, Histone deacetylase 8 (Homo sapiens, UniProt Q9BY41); assay: Inhibition of HDAC8 (unknown origin) using Ac-Leu-Gly-Lys(tfa)-AMC as substrate preincubated for 5 mins followed by substrate addition for 30 mins and measured following trypsin addition for 30 mins by fluorescence based analysis
T2 sequence (Q9BY41 whole entry): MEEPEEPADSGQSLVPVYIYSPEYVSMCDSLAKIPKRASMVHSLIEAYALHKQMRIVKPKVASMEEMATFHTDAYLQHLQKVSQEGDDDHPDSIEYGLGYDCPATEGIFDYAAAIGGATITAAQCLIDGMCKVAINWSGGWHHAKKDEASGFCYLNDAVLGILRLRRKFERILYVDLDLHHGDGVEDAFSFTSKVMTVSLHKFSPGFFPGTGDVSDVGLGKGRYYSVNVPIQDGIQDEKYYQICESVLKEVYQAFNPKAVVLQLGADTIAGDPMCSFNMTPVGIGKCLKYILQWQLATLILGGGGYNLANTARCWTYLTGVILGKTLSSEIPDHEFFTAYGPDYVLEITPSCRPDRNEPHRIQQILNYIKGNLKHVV

[1] = Toxicity against Balb/c mouse implanted with mouse 4T1 cells assessed as effect on body weight changes at 25 to 50 mg/kg, po administered daily for 15 days; assay type: organism-based; details: in vivo, 360 h, dose 25-50 mg/kg, time 15 day
[2] = Toxicity against Balb/c mouse implanted with mouse 4T1 cells assessed as effect on morphological changes in liver at 25 to 50 mg/kg, po administered daily for 15 days by Hematoxylin-Eosin staining based analysis; assay type: organism-based; details: in vivo, 360 h, dose 25-50 mg/kg, time 15 day
[3] = Lipophilicity, log D of the compound at pH 7.4; assay type: physicochemical; details: buffer
[4] = AUC (0 to infinity) in Balb/c mouse at 1 mg/kg, iv measured for 24 hrs by LC-MS/MS analysis; assay type: ADME, organism-based; details: in vivo
4T1 [5] = assay: Antitumor immunity against mouse 4T1 cells implanted in Balb/c mouse assessed as increase in CD40+ dendritic cells in tumor tissue at 25 mg/kg, po administered daily for 15 days by immunohistochemistry; assay type: functional, organism-based; details: time 15.0 day
4T1 [6] = assay: Antitumor immunity against mouse 4T1 cells implanted in Balb/c mouse assessed as increase in CD8+ T cells in tumor tissue at 25 mg/kg, po administered daily for 15 days by flow cytometry; assay type: functional, organism-based; details: time 15.0 day

IC50 (Histone deacetylase 3): 6.26 nM | IC50 (Histone deacetylase 7): > 10000 nM | IC50 (Histone deacetylase 8): 7.69 nM | logD [3]: 3.29 | AUC(0-inf) [4]: 0.0893 µg·h/mL
SMILES: O=C(CCCCCCNC(=O)c1cc2cc(-c3cn[nH]c3)ccc2s1)NO
Activity [1]: Non-Toxic | Activity [2]: Non-Toxic | Activity (4T1 [5]): Active | Activity (4T1 [6]): Active
